According to US9687479B2, “Multisubstituted aromatic compounds as serine protease inhibitors” (VERSEON CORPORATION, priority 2013, dated 2017):

What follows are molecules tested against Human thrombin (Homo sapiens (Human), UniProt P00734) (assay: Thrombin protease activity inhibition assay (chromogenic substrate S-2238)). Settings: not given.
Assay type: biochemical
Outline: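 Thrombin at 3 nM final in 0.05 M Tris pH 7.4, 0.015 M NaCl, 0.01% PEG-8000, at room temperature; compounds as ten-point three-fold dilutions.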
Molecule `Nc1cc(-c2ccc[nH]c2=O)n[nH]1` [Cmpd 1, 3-(5-amino-1H-pyrazol-3-yl)-1,2-dihydropyridin-2-one] has an IC50 greater than 100000 nM.

Same assay, conditions: 3 nM thrombin, 125 μM S-2238, 10 min pre-incubation, RT
`COc1ccccc1C(=O)n1nc(-c2cccn(C)c2=O)cc1NCc1ccc(Cl)s1` [Cmpd 147, 3-(5-[(5-chlorothiophen-2-yl)methyl]amino-1-[(2-methoxyphenyl)carbonyl]-1H-pyrazol-3-yl)-1-methyl-1,2-dihydropyridin-2-one] gave an IC50 of less than 100 nM. With `Cn1cccc(-c2cc(NCc3ccc(Cl)s3)n[nH]2)c1=O` [Cmpd 236, 3-(5-[(5-chlorothiophen-2-yl)methyl]amino-1H-pyrazol-3-yl)-1-methyl-1,2-dihydropyridin-2-one] the IC50 was 10000 to 100000 nM. Work on `COc1ccccc1C(=O)n1nc(-c2cccn(Cc3ccoc3)c2=O)cc1NCc1ccc(Cl)s1` [Cmpd 136, 3-(5-[(5-chlorothiophen-2-yl)methyl]amino-1-[(2-methoxyphenyl)carbonyl]-1H-pyrazol-3-yl)-1-(furan-3-ylmethyl)-1,2-dihydropyridin-2-one] yielded an IC50 of less than 100 nM. For `O=C(c1ccoc1)n1nc(-c2cccn(CCN3CCOCC3)c2=O)cc1NCc1ccc(Cl)s1` [Cmpd 181, 3-(5-[(5-chlorothiophen-2-yl)methyl]amino-1-[(furan-3-yl)carbonyl]-1H-pyrazol-3-yl)-1-[2-(morpholin-4-yl)ethyl]-1,2-dihydropyridin-2-one], the IC50 was less than 100 nM. Molecule `O=C(c1cccs1)n1nc(-c2cccn(Cc3ccccn3)c2=O)cc1NCc1ccc(Cl)s1` [Cmpd 186, 3-(5-[(5-chlorothiophen-2-yl)methyl]amino-1-[(thiophen-2-yl)carbonyl]-1H-pyrazol-3-yl)-1-(pyridin-2-ylmethyl)-1,2-dihydropyridin-2-one] has an IC50 of less than 100 nM. `CC(C)(C)C(=O)n1nc(-c2cccn(CC(=O)N3CCOCC3)c2=O)cc1NCc1ccc(Cl)s1` [Cmpd 88, 3-(5-[(5-chlorothiophen-2-yl)methyl]amino-1-(2,2-dimethylpropanoyl)-1H-pyrazol-3-yl)-1-[2-(morpholin-4-yl)-2-oxoethyl]-1,2-dihydropyridin-2-one] showed an IC50 of less than 100 nM. With `O=C(c1ccco1)n1nc(-c2cccn(Cc3ccco3)c2=O)cc1NCc1ccc(Cl)s1` [Cmpd 161, 3-(5-[(5-chlorothiophen-2-yl)methyl]amino-1-[(furan-2-yl)carbonyl]-1H-pyrazol-3-yl)-1-(furan-2-ylmethyl)-1,2-dihydropyridin-2-one] the IC50 was less than 100 nM. With `CC(C)(C)OC(=O)Cn1cccc(-c2cc(NCc3ccc(Cl)s3)n(C(=O)c3ccoc3)n2)c1=O` [Cmpd 263, tert-butyl 2-[3-(5-[(5-chlorothiophen-2-yl)methyl]amino-1-[(furan-3-yl)carbonyl]-1H-pyrazol-3-yl)-2-oxo-1,2-dihydropyridin-1-yl]acetate] the IC50 was less than 100 nM. Molecule `O=c1c(-c2cc(NCc3ccc(Cl)s3)[nH]n2)cccn1Cc1cccc2ccccc12` [Cmpd 224, 3-(5-[(5-chlorothiophen-2-yl)methyl]amino-1H-pyrazol-3-yl)-1-(naphthalen-1-ylmethyl)-1,2-dihydropyridin-2-one] has an IC50 greater than 100000 nM. Molecule `CC(C)(C)C(=O)n1nc(-c2cccn(CCc3ccccc3)c2=O)cc1NCc1ccc(Cl)s1` [Cmpd 76, 3-(5-[(5-chlorothiophen-2-yl)methyl]amino-1-(2,2-dimethylpropanoyl)-1H-pyrazol-3-yl)-1-(2-phenylethyl)-1,2-dihydropyridin-2-one] has an IC50 of less than 100 nM. `O=c1c(-c2cc(NCc3ccc(Cl)s3)[nH]n2)cccn1Cc1ccco1` [Cmpd 222, 3-(5-[(5-chlorothiophen-2-yl)methyl]amino-1H-pyrazol-3-yl)-1-(furan-2-ylmethyl)-1,2-dihydropyridin-2-one] gave an IC50 greater than 100000 nM. `O=C(c1ccccc1)n1nc(-c2cccn(Cc3ccccn3)c2=O)cc1NCc1ccc(Cl)s1` [Cmpd 66, 3-(1-benzoyl-5-[(5-chlorothiophen-2-yl)methyl]amino-1H-pyrazol-3-yl)-1-(pyridin-2-ylmethyl)-1,2-dihydropyridin-2-one] showed an IC50 of less than 100 nM. `O=C(c1ccccc1Cl)n1nc(-c2cccn(Cc3ccsc3)c2=O)cc1NCc1ccc(Cl)s1` [Cmpd 251, 3-1-[(2-chlorophenyl)carbonyl]-5-[(5-chlorothiophen-2-yl)methyl]amino-1H-pyrazol-3-yl-1-(thiophen-3-ylmethyl)-1,2-dihydropyridin-2-one] showed an IC50 of less than 100 nM. `COc1ccccc1C(=O)n1nc(-c2cccn(Cc3ccc4ccccc4c3)c2=O)cc1NCc1ccc(Cl)s1` [Cmpd 137, 3-(5-[(5-chlorothiophen-2-yl)methyl]amino-1-[(2-methoxyphenyl)carbonyl]-1H-pyrazol-3-yl)-1-(naphthalen-2-ylmethyl)-1,2-dihydropyridin-2-one] showed an IC50 of less than 100 nM. `CC(C)(C)C(=O)n1nc(-c2cccn(Cc3cccnc3)c2=O)cc1NCc1ccc(Cl)s1` [Cmpd 83, 3-(5-[(5-chlorothiophen-2-yl)methyl]amino-1-(2,2-dimethylpropanoyl)-1H-pyrazol-3-yl)-1-(pyridin-3-ylmethyl)-1,2-dihydropyridin-2-one] showed an IC50 of less than 100 nM. Molecule `N#CCn1cccc(-c2cc(NCc3ccc(Cl)s3)n(C(=O)c3ccoc3)n2)c1=O` [Cmpd 58, 2-[3-(5-[(5-chlorothiophen-2-yl)methyl]amino-1-[(furan-3-yl)carbonyl]-1H-pyrazol-3-yl)-2-oxo-1,2-dihydropyridin-1-yl]acetonitrile] has an IC50 of less than 100 nM. `O=c1c(-c2cc(NCc3ccc(Cl)s3)[nH]n2)cccn1CCc1ccccc1` [Cmpd 221, 3-(5-[(5-chlorothiophen-2-yl)methyl]amino-1H-pyrazol-3-yl)-1-(2-phenylethyl)-1,2-dihydropyridin-2-one] gave an IC50 of 10000 to 100000 nM. With `O=C(c1ccoc1)n1nc(-c2cccn(Cc3cccc4ccccc34)c2=O)cc1NCc1ccc(Cl)s1` [Cmpd 174, 3-(5-[(5-chlorothiophen-2-yl)methyl]amino-1-[(furan-3-yl)carbonyl]-1H-pyrazol-3-yl)-1-(naphthalen-1-ylmethyl)-1,2-dihydropyridin-2-one] the IC50 was less than 100 nM. `O=C(c1ccoc1)n1nc(-c2cccn(Cc3ccncc3)c2=O)cc1NCc1ccc(Cl)s1` [Cmpd 6, 3-(5-[(5-chlorothiophen-2-yl)methyl]amino-1-[(furan-3-yl)carbonyl]-1H-pyrazol-3-yl)-1-(pyridin-4-ylmethyl)-1,2-dihydropyridin-2-one] gave an IC50 of less than 100 nM. `CN(C)c1cc(-c2ccc[nH]c2=O)nn1C(=O)c1ccco1` [Cmpd 239, 3-[5-(dimethylamino)-1-[(furan-2-yl)carbonyl]-1H-pyrazol-3-yl]-1,2-dihydropyridin-2-one] showed an IC50 greater than 100000 nM. Work on `O=C(c1ccco1)n1nc(-c2cccn(Cc3ccccn3)c2=O)cc1NCc1ccc(F)cc1` [Cmpd 74, 3-(5-[(4-fluorophenyl)methyl]amino-1-[(furan-2-yl)carbonyl]-1H-pyrazol-3-yl)-1-(pyridin-2-ylmethyl)-1,2-dihydropyridin-2-one] yielded an IC50 of less than 100 nM. In the case of `O=C(c1cccc2c1OCCO2)n1nc(-c2cccn(Cc3cccnn3)c2=O)cc1NCc1ccc(Cl)s1` [Cmpd 112, 3-(5-[(5-chlorothiophen-2-yl)methyl]amino-1-[(2,3-dihydro-1,4-benzodioxin-5-yl)carbonyl]-1H-pyrazol-3-yl)-1-(pyridazin-3-ylmethyl)-1,2-dihydropyridin-2-one], the IC50 is reported as less than 100 nM. `O=c1c(-c2cc(NCc3ccc(Cl)s3)[nH]n2)cccn1Cc1cccnn1` [Cmpd 226, 3-(5-[(5-chlorothiophen-2-yl)methyl]amino-1H-pyrazol-3-yl)-1-(pyridazin-3-ylmethyl)-1,2-dihydropyridin-2-one] gave an IC50 of 10000 to 100000 nM. Molecule `O=C(c1ccccc1Cl)n1nc(-c2cccn(Cc3ncccn3)c2=O)cc1NCc1ccc(Cl)s1` [Cmpd 249, 3-1-[(2-chlorophenyl)carbonyl]-5-[(5-chlorothiophen-2-yl)methyl]amino-1H-pyrazol-3-yl-1-(pyrimidin-2-ylmethyl)-1,2-dihydropyridin-2-one] has an IC50 of less than 100 nM. In the case of `COc1ccccc1C(=O)n1nc(-c2cccn(Cc3ccco3)c2=O)cc1NCc1ccc(Cl)s1` [Cmpd 135, 3-(5-[(5-chlorothiophen-2-yl)methyl]amino-1-[(2-methoxyphenyl)carbonyl]-1H-pyrazol-3-yl)-1-(furan-2-ylmethyl)-1,2-dihydropyridin-2-one], the IC50 is reported as less than 100 nM. `O=C(Cn1cccc(-c2cc(NCc3ccc(Cl)s3)n(C(=O)c3ccoc3)n2)c1=O)N1CCOCC1` [Cmpd 180, 3-(5-[(5-chlorothiophen-2-yl)methyl]amino-1-[(furan-3-yl)carbonyl]-1H-pyrazol-3-yl)-1-[2-(morpholin-4-yl)-2-oxoethyl]-1,2-dihydropyridin-2-one] was tested, and the IC50 was less than 100 nM. Molecule `O=C(c1ccccc1)n1nc(-c2cccn(Cc3cccnc3)c2=O)cc1NCc1ccc(Cl)s1` [Cmpd 67, 3-(1-benzoyl-5-[(5-chlorothiophen-2-yl)methyl]amino-1H-pyrazol-3-yl)-1-(pyridin-3-ylmethyl)-1,2-dihydropyridin-2-one] has an IC50 of less than 100 nM. `O=C(c1ccccc1)n1nc(-c2cccn(Cc3ncccn3)c2=O)cc1NCc1ccc(Cl)s1` [Cmpd 69, 3-(1-benzoyl-5-[(5-chlorothiophen-2-yl)methyl]amino-1H-pyrazol-3-yl)-1-(pyrimidin-2-ylmethyl)-1,2-dihydropyridin-2-one] showed an IC50 of less than 100 nM. Molecule `COc1ccc(C(=O)n2nc(-c3cccn(Cc4ccsc4)c3=O)cc2NCc2ccc(Cl)s2)c(OC)c1` [Cmpd 130, 3-(5-[(5-chlorothiophen-2-yl)methyl]amino-1-[(2,4-dimethoxyphenyl)carbonyl]-1H-pyrazol-3-yl)-1-(thiophen-3-ylmethyl)-1,2-dihydropyridin-2-one] has an IC50 of less than 100 nM. Work on `O=C(c1ccoc1)n1nc(-c2cccn(CCc3ccccc3)c2=O)cc1NCc1ccc(Cl)s1` [Cmpd 172, 3-(5-[(5-chlorothiophen-2-yl)methyl]amino-1-[(furan-3-yl)carbonyl]-1H-pyrazol-3-yl)-1-(2-phenylethyl)-1,2-dihydropyridin-2-one] yielded an IC50 of less than 100 nM. For `COc1ccccc1C(=O)n1nc(-c2cccn(CCc3ccccc3)c2=O)cc1NCc1ccc(Cl)s1` [Cmpd 134, 3-(5-[(5-chlorothiophen-2-yl)methyl]amino-1-[(2-methoxyphenyl)carbonyl]-1H-pyrazol-3-yl)-1-(2-phenylethyl)-1,2-dihydropyridin-2-one], the IC50 was less than 100 nM.
